Patent US6489535B1, “Non-mammalian transgenic animal having an adult onset neurodegenerative phenotype” (priority 1999, dated 2002)
Read-outs that look alike come from different tables or passages of the source.

Key:
AON mutant fly strain = experiment: whole plant or invertebrate; format: in vivo, Drosophila melanogaster; settings: for Phenotype AON + E: larva fed .5 μg/ml estrogen, >90% of 100 flies
Protocol: (§1) Each compound was prepared over a range of dilutions and each was tested for the activity of alleviating the adult onset neurodegeneration condition. The compound dilutions were uptaken by either the larva or adult flies. The compound dilutions were mixed into the nutrient media and this served as the food/water source for either larva or flies. The adult onset neurodegeneration symptoms and their timelines were monitored for each compound dilution and compared to the no treatment control. Compounds examined here included: beta-estradiol, zinc chloride, sodium chloride, water, chocolate, and phosphate buffered saline.
In addition, compounds were also tested in the AON mutant fly strain that were known not to influence human AON conditions. Finally, a complex mixture with unknown influence on human AON conditions was tested in the AON mutant fly strain.

wild-type adult flies = experiment: Wild-type flies fed estrogen, phenotype by adult age; format: in vivo, Drosophila melanogaster; settings: larva fed .5 μg/ml estrogen; note: key: None = normal adult fly; WC = loss of wing control; WP = wings paralyzed; C = loss of coordination and locomotion capabilities; L = flies stop uptaking liquid; D = death
Protocol: as §1

[1] = Drosophila melanogaster, po, read-out: S increased (S = AON symptom free adult time span)
Throughout, for Phenotype AON + E: key: None = normal adult fly; WC = loss of wing control; WP = wings paralyzed; C = loss of coordination and locomotion capabilities; L = flies stop uptaking liquid; D = death.

## CC(C)C[C@H]1C(=O)N2CCC[C@H]2[C@]2(O)O[C@](NC(=O)[C@@H]3C=C4c5cccc6[nH]c(Br)c(c56)C[C@H]4N(C)C3)(C(C)C)C(=O)N12 [Bromocriptine]
AON mutant fly strain; Drosophila melanogaster, po, dose .01 mg/ml, read-out: S increased (S = AON symptom free adult time span)
  change in vivo at 10 µg/mL: 33%
AON mutant fly strain; dose .1 mg/ml
  L.D.: L.D. 100

## [Cl-].[Cl-].[Zn+2] [Zinc, zinc chloride]
AON mutant fly strain; higher concentrations, 50-100 μgrams/ml of nutrient media, oral
  effect on the AON condition: exacerbated the AON condition
AON mutant fly strain; low concentrations, 10-20 μgrams/ml of nutrient media, oral
  effect on the mutant AON fly strain: no effect was observed

## C[C@]12N[C@H](Cc3ccccc31)c1ccccc12 [Dizocilipine]
AON mutant fly strain; dose .00006 mg/ml
  S increased (S = AON symptom free adult time span): 17%
AON mutant fly strain; dose .0006 mg/ml
  AON symptoms delayed: delayed 2 days
AON mutant fly strain; dose .06 mg/ml
  AON growth: delayed
  result (effect on AON phenotype): No
AON mutant fly strain; in vivo
  L.D.: L.D. 100

## [Cl-].[Na+] [sodium chloride]
AON mutant fly strain; oral, dose not stated
  effect on the AON phenotype in the mutant fly strain: no effect

## CCCN1C[C@H](CSC)C[C@@H]2c3cccc4[nH]cc(c34)C[C@H]21 [pergolide]
AON mutant fly strain; dose not stated
  effect in the AON fly drug screening: did not show any effect

## CCCn1cnc2c1c(=O)n(CCCCC(C)=O)c(=O)n2C [Propentofylline]
AON mutant fly strain; [1]
  change in vivo at 5000 µg/mL: 200%
AON mutant fly strain; dose 5 mg/ml
  L.D.: L.D. 80,
AON mutant fly strain; dose 5 mg/ml, escapers
  D increased (D = life span): 17%

## beta-estradiol [Estrogen]
AON mutant fly strain; administered orally
  effect on the AON condition in the mutant fly strain: alleviates the AON condition
AON mutant fly strain; age of adult 0-1 hours
  Phenotype AON + E: None
AON mutant fly strain; age of adult 1-3 hours
  Phenotype AON + E: None
AON mutant fly strain; dose 5 mg/ml
  D increased (D = life span): increased 68%
  S increased (S = AON symptom free adult time span): 100%, D
AON mutant fly strain; dose .5 mg/ml
  S increased (S = AON symptom free adult time span): 200%
wild-type adult flies; age of adult 0-1 hours
  Phenotype Wt + E: None
wild-type adult flies; age of adult 1-3 hours
  Phenotype Wt + E: None
wild-type adult flies; age of adult 3-24 hours
  Phenotype Wt + E: None
wild-type adult flies; age of adult 24-36 hours
  Phenotype Wt + E: None
wild-type adult flies; age of adult 36-72 hours
  Phenotype Wt + E: None
wild-type adult flies; age of adult 72-144 hours
  Phenotype Wt + E: None
wild-type adult flies; age of adult 144+ hours
  Phenotype Wt + E: None

## Nc1nc2ccc(OC(F)(F)F)cc2s1 [Riluzole]
AON mutant fly strain; [1]
  change in vivo at 10 µg/mL: 100%
AON mutant fly strain; dose .01 mg/ml
  D increased (D = life span): increased 17%

## OC(CCN1CCCCC1)(c1ccccc1)C1CCCCC1 (centres unmarked) [Trihexyphenidyl]
AON mutant fly strain; [1]
  change in vivo at 100 µg/mL: ~25%
  change in vivo at 1000 µg/mL: 33%

## CN1C(=O)CN=C(c2ccccc2)c2cc(Cl)ccc21 [Diazepam]
AON mutant fly strain; AON mutant fly strain, Drosophila melanogaster, in vivo
  L.D.: L.D. 100
AON mutant fly strain; in vivo
  result (effect on AON phenotype): No Effect

## CN1[C@@H]2CC[C@H]1C[C@@H](OC(c1ccccc1)c1ccccc1)C2 [Benztropine]
AON mutant fly strain; [1]
  change in vivo at 0.023 µg/mL: 400%
  change in vivo at 0.23 µg/mL: 300%
  change in vivo at 23 µg/mL: 500%
AON mutant fly strain; dose .000023 mg/ml
  D increased (D = life span): 33%
AON mutant fly strain; dose .00023 mg/ml
  D increased (D = life span): 17%
AON mutant fly strain; dose .023 mg/ml, AON class
  L.D., AON class: L.D. 95,
AON mutant fly strain; dose .23 mg/ml
  L.D.: L.D. 100

## CCN(CC)C(=O)N[C@H]1C=C2c3cccc4[nH]cc(c34)C[C@H]2N(C)C1 [Lisuride]
AON mutant fly strain; Drosophila melanogaster, po, dose .002 mg/ml, read-out: S increased (S = AON symptom free adult time span)
  change in vivo at 2 µg/mL: 100%
AON mutant fly strain; dose 2 mg/ml
  L.D.: L.D. 100
AON mutant fly strain; dose .002 mg/ml
  L.D.: L.D. 60, S
AON mutant fly strain; dose .02 mg/ml, (no AON flies)
  L.D.: L.D. 99 (no
AON mutant fly strain; dose .2 mg/ml
  L.D.: L.D. 100

## Cc1c(C)c2c(c(C)c1O)CC[C@@](C)(CCC[C@H](C)CCC[C@H](C)CCCC(C)C)O2 [Alpha Tocopherol]
AON mutant fly strain; dose 1 mg/ml
  L.D.: L.D. 30,
AON mutant fly strain; dose 1 mg/ml, escapers
  D increased (D = life span): increased 33%
  S increased (S = AON symptom free adult time span): 200%, D

## COc1ccc2[nH]cc(CCNC(C)=O)c2c1 [Melatonin]
AON mutant fly strain; dose 5 mg/ml
  L.D.: L.D. 100
AON mutant fly strain; dose .0005 mg/ml
  result (effect on AON phenotype): No Effect
AON mutant fly strain; dose .005 mg/ml
  result (effect on AON phenotype): No Effect
AON mutant fly strain; dose .05 mg/ml
  result (effect on AON phenotype): No Effect
AON mutant fly strain; dose .5 mg/ml
  result (effect on AON phenotype): No Effect

## C#CCN(C)[C@H](C)Cc1ccccc1 [Selegiline]
AON mutant fly strain; Drosophila melanogaster, po, dose .0002 mg/ml, read-out: S increased (S = AON symptom free adult time span)
  change in vivo at 0.2 µg/mL: 200%
AON mutant fly strain; Drosophila melanogaster, po, dose .02 mg/ml, read-out: S increased (S = AON symptom free adult time span)
  change in vivo at 20 µg/mL: 100%
AON mutant fly strain; dose 2 mg/ml
  L.D.: L.D. 100
AON mutant fly strain; dose .2 mg/ml, AON class only
  L.D., AON class only: only, L.D. 95,
AON mutant fly strain; dose .2 mg/ml, escapers
  result (effect on AON phenotype): No Effect

## N[C@@H](Cc1ccc(O)c(O)c1)C(=O)O [Levodopa]
AON mutant fly strain; [1]
  change in vivo at 0.15 µg/mL: 100%

## Nc1c2c(nc3ccccc13)CCCC2 [Tacrine]
AON mutant fly strain; [1]
  change in vivo at 0.5 µg/mL: 100%

## NC(=O)c1cccnc1 [Nicotinamide]
AON mutant fly strain; [1]
  change in vivo at 5000 µg/mL: 100%
AON mutant fly strain; dose 5 mg/ml
  L.D.: L.D. 90, S
